This is an account of results in patent publication US10494683B2, “Nitrate- and nitrite-reducing probiotic feed additive” (The United States of America, as represented by the …, priority 2015, dated 2019).

In one assay the test system is Holstein steers. Description: Ruminally cannulated steers given NaNO3 with or without strain NRRL 67118. Type of assay: in vivo. The note with it: rumen samples of treated steers incubated in vitro.
Assay [1] relates to mixed ruminal microorganisms. Description: CH4 production in vitro with mixed ruminal microorganisms. Type of assay: cell-based.

For the compound `O=[N+]([O-])[O-].[Na+]` [NO3, NaNO3], the dCH4/dt with Holstein steers (83 mg NaNO3/kg body weight daily, Control 4.13) turned out to be 2.22 b umol/ml per h. The Nitrate reduction in the assay with Holstein steers (Control 0.42) is 0.54 e mM/hr. The compound further gave a Nitrite reduction in the assay with Holstein steers (Control 1.21) of 1.38 c mM/hr.

For the compound `O=N[O-].[Na+]` [NO2, NaNO2], the CH4 production result in assay [1] is “zero”.
